Assay results as given in patent US8058295B2, “Cystic fibrosis transmembrane conductance regulator protein inhibitors and uses thereof” (The Regents of the University of California, priority 2002, dated 2011).

Test system: STa toxin-induced fluid secretion
Design: species or system rats
Details: rat, in vivo

## O=C(O)c1ccc(/C=C2\SC(=S)N(c3cccc(C(F)(F)F)c3)C2=O)cc1 [CFTRinh-172, 3-[(3-trifluoromethyl)phenyl]-5-[(4-carboxyphenyl)methylene]-2-thioxo-4-thiazolidinone]
  inhibition of intestinal fluid secretion: ~75%
